This is an account of results in patent US12240844B2 (Voronoi, Inc., priority 2019, dated 2025).

One experiment concerns MDA-MB-231 cell line. The experiment in a line: MDA-MB-231 cancer cell proliferation inhibition (Cell Titer-Glo). The class given is cell-based. To be noted: Homo sapiens, MDA-MB-231 triple-negative breast cancer cell line, 72 hours. In a few lines: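 GI50 comes from CellTiter-Glo luminescence, read 10 min after reagent addition at RT, following 72 h compound treatment. Eleven concentrations were used (⅓ steps, highest 10 μM final) on 2000 cells/well. MDA-MB-231 and MDA-MB-468 were grown in DMEM, SHP-77 in RPMI.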
For orientation: ATP-based viability assays read luminescence as a measure of living cells.

The next experiment concerns the target T1, TTK (Homo sapiens, UniProt P33981).
T1 sequence (P33981 1-857): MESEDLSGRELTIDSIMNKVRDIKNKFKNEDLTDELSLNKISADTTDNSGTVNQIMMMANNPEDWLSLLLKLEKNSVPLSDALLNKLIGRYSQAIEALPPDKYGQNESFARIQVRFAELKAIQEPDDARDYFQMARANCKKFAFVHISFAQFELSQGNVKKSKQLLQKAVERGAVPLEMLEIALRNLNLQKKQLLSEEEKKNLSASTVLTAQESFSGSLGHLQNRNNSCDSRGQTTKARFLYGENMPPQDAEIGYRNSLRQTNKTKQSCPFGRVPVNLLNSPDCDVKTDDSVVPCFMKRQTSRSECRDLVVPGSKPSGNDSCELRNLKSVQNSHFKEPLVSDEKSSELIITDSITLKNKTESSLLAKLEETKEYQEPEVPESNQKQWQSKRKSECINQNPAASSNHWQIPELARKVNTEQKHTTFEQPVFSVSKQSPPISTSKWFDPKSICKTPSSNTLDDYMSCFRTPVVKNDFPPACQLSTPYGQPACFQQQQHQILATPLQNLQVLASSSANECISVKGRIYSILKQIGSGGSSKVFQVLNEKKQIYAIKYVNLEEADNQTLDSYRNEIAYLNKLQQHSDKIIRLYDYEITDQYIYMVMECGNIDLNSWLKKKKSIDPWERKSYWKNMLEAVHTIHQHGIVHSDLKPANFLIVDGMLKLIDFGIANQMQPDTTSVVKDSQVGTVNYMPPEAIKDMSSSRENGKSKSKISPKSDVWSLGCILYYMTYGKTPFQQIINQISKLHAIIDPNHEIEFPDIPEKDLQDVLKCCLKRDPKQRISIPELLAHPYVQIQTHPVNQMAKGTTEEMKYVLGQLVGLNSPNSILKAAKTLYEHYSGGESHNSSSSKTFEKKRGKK
Nature of the experiment: TTK enzyme inhibition, ADP-Glo kinase assay. Further details: purchased Signalchem T20-10G. The conditions noted are these: ATP 5 μM. Format: biochemical. The method, boiled down: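 Recombinant human TTK (7.5 ng) reacted with 5 μM ATP and MBP substrate (0.2 μg) for 4 h at 25° C in Tris-HCl pH 7.4, MgCl2, BSA, DTT buffer, compound at 0.000017–1 μM. ADP formation by ADP-Glo luminescence; IC50 (nM) relative to solvent control.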
On the technique in general: In ADP-Glo the light output rises with the ADP produced.

For the next experiment, the target named is LRRK2 (G2019S) (Homo sapiens, UniProt Q5S007, G2019S). Nature of the experiment: LRRK2 G2019S enzyme inhibition, ADP-Glo kinase assay. Format: biochemical. Further details: purchased SignalChem L10-12GG. In a few lines: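 Purified human LRRK2 G2019S (16 ng) with 25 μM ATP and 0.2 μg substrate, 2 h at 25° C in 40 mM Tris-HCl pH 7.4, 20 mM MgCl2, 0.5 mg/ml BSA, 50 μM DTT; compound at 12 final concentrations from 50 μM downward. ADP-Glo luminescence versus solvent control gave IC50 (nM).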
Sequence of LRRK2 (G2019S) (Q5S007 970-2527 G2019S limits assumed): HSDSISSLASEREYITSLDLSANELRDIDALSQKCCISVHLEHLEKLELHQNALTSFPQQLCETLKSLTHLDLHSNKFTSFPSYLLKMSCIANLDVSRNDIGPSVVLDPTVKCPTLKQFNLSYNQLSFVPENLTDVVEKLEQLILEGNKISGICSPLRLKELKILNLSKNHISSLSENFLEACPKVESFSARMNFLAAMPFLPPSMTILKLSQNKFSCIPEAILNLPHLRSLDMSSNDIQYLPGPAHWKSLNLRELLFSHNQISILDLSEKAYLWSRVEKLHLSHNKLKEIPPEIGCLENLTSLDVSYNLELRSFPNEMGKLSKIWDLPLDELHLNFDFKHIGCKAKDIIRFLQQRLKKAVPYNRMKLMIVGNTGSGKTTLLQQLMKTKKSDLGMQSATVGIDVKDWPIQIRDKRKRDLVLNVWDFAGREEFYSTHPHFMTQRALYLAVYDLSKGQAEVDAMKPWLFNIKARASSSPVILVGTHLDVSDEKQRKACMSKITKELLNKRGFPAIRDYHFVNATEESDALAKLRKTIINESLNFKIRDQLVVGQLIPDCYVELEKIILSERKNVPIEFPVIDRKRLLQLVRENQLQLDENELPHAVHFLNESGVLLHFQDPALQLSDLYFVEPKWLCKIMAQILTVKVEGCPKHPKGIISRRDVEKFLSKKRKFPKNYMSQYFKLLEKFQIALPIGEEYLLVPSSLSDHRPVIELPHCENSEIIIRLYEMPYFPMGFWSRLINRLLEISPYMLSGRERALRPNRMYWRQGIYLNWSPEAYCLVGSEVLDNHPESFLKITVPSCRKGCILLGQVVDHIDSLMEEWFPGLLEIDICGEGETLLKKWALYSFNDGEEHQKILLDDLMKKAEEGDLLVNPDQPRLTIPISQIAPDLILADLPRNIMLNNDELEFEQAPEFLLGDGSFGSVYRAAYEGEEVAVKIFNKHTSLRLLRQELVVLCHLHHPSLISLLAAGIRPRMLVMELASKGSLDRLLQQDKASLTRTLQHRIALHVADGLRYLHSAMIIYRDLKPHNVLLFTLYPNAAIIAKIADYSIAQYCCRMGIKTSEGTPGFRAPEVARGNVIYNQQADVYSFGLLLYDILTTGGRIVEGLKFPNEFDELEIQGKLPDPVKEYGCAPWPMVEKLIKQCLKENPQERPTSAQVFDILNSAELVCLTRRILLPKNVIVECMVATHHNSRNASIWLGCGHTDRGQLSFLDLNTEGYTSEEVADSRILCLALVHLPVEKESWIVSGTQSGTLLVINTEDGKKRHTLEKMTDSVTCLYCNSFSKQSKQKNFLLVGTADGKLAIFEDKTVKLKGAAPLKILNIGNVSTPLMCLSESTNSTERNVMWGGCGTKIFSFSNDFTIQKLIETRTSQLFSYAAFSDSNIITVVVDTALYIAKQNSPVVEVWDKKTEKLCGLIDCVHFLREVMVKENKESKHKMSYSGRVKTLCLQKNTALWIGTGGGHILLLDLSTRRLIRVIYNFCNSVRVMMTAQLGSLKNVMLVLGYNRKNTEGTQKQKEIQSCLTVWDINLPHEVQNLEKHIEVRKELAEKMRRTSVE

`N#Cc1c[nH]c2nc(Nc3ccc(C(=O)N4CCOCC4)c4c3OCCO4)cc(C3CC3)c12` [Example 225, 4-cyclopropyl-6-((8-(morpholine-4-carbonyl)-2,3-dihydrobenzo[b] [1,4]dioxin-5-yl)amino)-1H-pyrrolo[2,3-b]pyridine-3-carbonitrile]: the concentration for 50% growth inhibition (GI50) with MDA-MB-231 cell line was 301 to 1000 nM. Moreover, the half-maximal inhibitory concentration (IC50) against TTK and against LRRK2 (G2019S) was below 100 nM in each case.
Turning to `CNc1cc(Nc2ccc(C(=O)N3CCC(N4C[C@@H]5C[C@H]4CO5)CC3)c3c2OCC3)nc2[nH]cc(C(F)(F)F)c12` [Example 241, (4-((1S,4S)-2-oxa-5-azabicyclo[2.2.1]heptan-5-yl)piperidin-1-yl)(7-((4-(methylamino)-3-(trifluoromethyl)-1H-pyrrolo[2,3-b]pyridin-6-yl)amino)-2,3-dihydrobenzofuran-4-yl)methanone], the GI50 in the experiment with MDA-MB-231 cell line was in the range of 301 to 1000 nM. The IC50 against TTK and on LRRK2 (G2019S) was below 100 nM in each case.
For the compound `CCNc1cc(Nc2ccc(C(=O)N3CCC(N4C[C@@H]5C[C@H]4CO5)CC3)c3c2OCC3)nc2[nH]cc(C(F)(F)F)c12` [Example 105, (4-((1S,4S)-2-oxa-5-azabicyclo[2.2.1]heptan-5-yl)piperidin-1-yl)(7-((4-(ethylamino)-3-(trifluoromethyl)-1H-pyrrolo[2,3-b]pyridin-6-yl)amino)-2,3-dihydrobenzofuran-4-yl)methanone], the GI50 in the experiment with MDA-MB-231 cell line fell in the range of 301 to 1000 nM. For the same compound, the 50% inhibitory concentration (IC50) at TTK and on LRRK2 (G2019S) was below 100 nM throughout.
For `O=C(c1ccc(Nc2cc(C3CC3)c3c(C(F)(F)F)c[nH]c3n2)c2c1OCCO2)N1CCC(N2CCOCC2)CC1` [Example 221, (8-((4-cyclopropyl-3-(trifluoromethyl)-1H-pyrrolo[2,3-b]pyridin-6-yl)amino)-2,3-dihydrobenzo [b] [1,4]dioxin-5-yl)(4-morpholinopiperidin-1-yl)methanone], in the experiment with MDA-MB-231 cell line, the GI50 lay within 301 to 1000 nM. Besides, the IC50 on TTK was below 100 nM; at LRRK2 (G2019S) it was 101 to 300 nM.
Taken in the same sequence, the figures for `CNc1cc(Nc2ccc(C(=O)N3CCC(N4CCOCC4)CC3)c3c2OCC3)nc2[nH]cc(C(F)(F)F)c12` [Example 234, (7-((4-(methylamino)-3-(trifluoromethyl)-1H-pyrrolo[2,3-b]pyridin-6-yl)amino)-2,3-dihydrobenzofuran-4-yl)(4-morpholinopiperidin-1-yl)methanone] were 301 to 1000 nM, below 100 nM and below 100 nM.
In the experiment with MDA-MB-231 cell line, `CCNc1cc(Nc2ccc(P3(=O)CCN(C(C)=O)CC3)cc2OC)nc2[nH]cc(C(F)(F)F)c12` [Example 42, 1-(4-(4-((4-(ethylamino)-3-(trifluoromethyl)-1H-pyrrolo[2,3-b]pyridin-6-yl)amino)-3-methoxyphenyl)-4-oxido-1,4-azaphosphinan-1-yl)ethan-1-one] showed a concentration for 50% growth inhibition (GI50) of 301 to 1000 nM. Moreover, the half-inhibitory concentration (IC50) against TTK is below 100 nM; on LRRK2 (G2019S), 101 to 300 nM.
With `O=C(c1ccc(Nc2cc(C3CC3)c3c(C(F)(F)F)c[nH]c3n2)c2c1OCCO2)N1CCOCC1` [Example 220, (8-((4-cyclopropyl-3-(trifluoromethyl)-1H-pyrrolo[2,3-b]pyridin-6-yl)amino)-2,3-dihydrobenzo[b] [1,4]dioxin-5-yl)(morpholino) methanone], the GI50 with MDA-MB-231 cell line fell in the range of 301 to 1000 nM. Besides, the IC50 is below 100 nM against TTK and 301 to 1000 nM against LRRK2 (G2019S).
In turn, `O=C(c1ccc(Nc2cc(C3CC3)c3c(C(F)(F)F)c[nH]c3n2)c2c1CCO2)N1CCOCC1` [Example 91, (7-((4-cyclopropyl-3-(trifluoromethyl)-1H-pyrrolo[2,3-b]pyridin-6-yl)amino)-2,3-dihydrobenzofuran-4-yl)(morpholino) methanone] registered a GI50 in the experiment with MDA-MB-231 cell line of 301 to 1000 nM. The IC50 against TTK and at LRRK2 (G2019S) was 301 to 1000 nM in each case.
In the experiment on MDA-MB-231 cell line, `O=C(c1ccc(Nc2cc(C3CC3)c3c(C(F)(F)F)c[nH]c3n2)c2c1CCO2)N1CCC(N2CCOCC2)CC1` [Example 93, (7-((4-cyclopropyl-3-(trifluoromethyl)-1H-pyrrolo[2,3-b]pyridin-6-yl)amino)-2,3-dihydrobenzofuran-4-yl)(4-morpholinopiperidin-1-yl)mthanone] registered a 50% growth inhibitory concentration (GI50) of 301 to 1000 nM. Also, the IC50 was 301 to 1000 nM against TTK and below 100 nM at LRRK2 (G2019S).
`COc1cc(P2(=O)CCN(C(C)=O)CC2)ccc1Nc1cc(C2CC2)c2c(C(F)(F)F)c[nH]c2n1` [Example 48, 1-(4-(4-((4-cyclopropyl-3-(trifluoromethyl)-1H-pyrrolo[2,3-b]pyridin-6-yl)amino)-3-methoxyphenyl)-4-oxido-1,4-azaphosphinan-1-yl)ethan-1-one]: the concentration for 50% growth inhibition (GI50) with MDA-MB-231 cell line is 301 to 1000 nM. Moreover, the half-inhibitory concentration (IC50) against TTK and at LRRK2 (G2019S) was 301 to 1000 nM each time.
In the experiment on MDA-MB-231 cell line, `CNc1cc(Nc2ccc(S(=O)(=O)N3CCC(N4CCOCC4)CC3)c3c2OCCO3)nc2[nH]cc(C(F)(F)F)c12` [Example 233, N^4-methyl-N^6-(8-((4-morpholinopiperidin-1-yl)sulfonyl)-2,3-dihydrobenzo [b] [1,4]dioxin-5-yl)-3-(trifluoromethyl)-1H-pyrrolo[2,3-b]pyridine-4,6-diamine] displayed a 50% growth inhibitory concentration (GI50) of 301 to 1000 nM. Moreover, the IC50 was 101 to 300 nM against TTK and below 100 nM on LRRK2 (G2019S).
For the compound `CCNc1cc(Nc2ccc(C(=O)N3CCC(N4C[C@H]5C[C@@H]4CO5)CC3)c3c2OCC3)nc2[nH]cc(C(F)(F)F)c12` [Example 244, (4-((1R,4R)-2-oxa-5-azabicyclo[2.2.1]heptan-5-yl)piperidin-1-yl)(7-((4-(ethylamino)-3-(trifluoromethyl)-1H-pyrrolo[2,3-b]pyridin-6-yl)amino)-2,3-dihydrobenzofuran-4-yl)methanone], the 50% growth inhibitory concentration (GI50) with MDA-MB-231 cell line lay in the range of 301 to 1000 nM. Also, the 50% inhibitory concentration (IC50) at TTK and against LRRK2 (G2019S) was below 100 nM each time.
Compound `COCCNc1cc(Nc2ccc(P3(=O)CCN(C4CC4)CC3)cc2OC)nc2[nH]cc(C(F)(F)F)c12` [Example 207, 1-cyclopropyl-4-(3-methoxy-4-((4-((2-methoxyethyl)amino)-3-(trifluoromethyl)-1H-pyrrolo[2,3-b]pyridin-6-yl)amino)phenyl)-1,4-azaphosphinane 4-oxide] displayed a 50% growth inhibitory concentration (GI50) with MDA-MB-231 cell line of 301 to 1000 nM. In addition, the 50% inhibitory concentration (IC50) against TTK is below 100 nM; against LRRK2 (G2019S), 101 to 300 nM.
Taken in the same sequence, the figures for `CNc1cc(Nc2ccc(S(=O)(=O)N3CCC(N4CCOCC4)CC3)cc2OC)nc2[nH]cc(C(F)(F)F)c12` [Example 184, N^6-(2-methoxy-4-((4-morpholinopiperidin-1-yl)sulfonyl)phenyl)-N^4-methyl-3-(trifluoromethyl)-1H-pyrrolo[2,3-b]pyridine-4,6-diamine] were 301 to 1000 nM, below 100 nM and below 100 nM.
For the compound `CCNc1cc(Nc2cc(F)c(S(=O)(=O)N3CCC(N4CCOCC4)CC3)cc2OC)nc2[nH]cc(C(F)(F)F)c12` [Example 266, N^4-ethyl-N^6-(5-fluoro-2-methoxy-4-((4-morpholinopiperidin-1-yl)sulfonyl)phenyl)-3-(trifluoromethyl)-1H-pyrrolo[2,3-b]pyridine-4,6-diamine], the 50% growth inhibitory concentration (GI50) in the experiment with MDA-MB-231 cell line is 301 to 1000 nM. For the same compound, the IC50 against TTK is 301 to 1000 nM; at LRRK2 (G2019S), 101 to 300 nM.
On to `CNc1cc(Nc2ccc(C(=O)N3CC[C@@H](N4CCOCC4)C3)c3c2OCC3)nc2[nH]cc(C(F)(F)F)c12` [Example 214, (R)-(7-((4-(methylamino)-3-(trifluoromethyl)-1H-pyrrolo[2,3-b]pyridin-6-yl)amino)-2,3-dihydrobenzofuran-4-yl)(3-morpholinopyrrolidin-1-yl)methanone], for which, in the experiment on MDA-MB-231 cell line, the GI50 lay in the range of 301 to 1000 nM. The IC50 was 101 to 300 nM on TTK and below 100 nM on LRRK2 (G2019S).

Usually GI50 stands for the concentration at which growth is held to half of that of the control. Read a high GI50 as lower sensitivity of the cells. The term IC50 denotes the concentration that inhibits the measured activity by half. Higher therefore signals a need for much substance.
